Patent publication US11000033B2, “Ketone or oxime compound, and herbicide” (NISSAN CHEMICAL CORPORATION, priority 2014, dated 2021)

Legend:
Type in all cases: in vivo
[1] = tested on: Echinochloa oryzacola Vasing.; assay: Test Example 1: herbicidal activity, application before weed generation in submerged conditions (symbol A); conditions: application herbicide amount 320 g/ha
How it was run: (§1)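 0–5 visual score, 3 wk post-application. Submerged pots, alluvial soil, water 4 cm; seeds sown mixed, rice at 2.5 leaves transplanted. Emulsion diluted to predetermined dose, applied to water surface at sowing. 25–30 °C greenhouse.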

[2] = tested on: Scirpus juncoides; assay: Test Example 1: herbicidal activity, application before weed generation in submerged conditions (symbol B); conditions: application herbicide amount 320 g/ha
How it was run: as §1

[3] = tested on: Monochoria vaginalis; assay: Test Example 1: herbicidal activity, application before weed generation in submerged conditions (symbol C); conditions: application herbicide amount 320 g/ha
How it was run: as §1

[4] = tested on: transplanted rice plant; assay: Test Example 1: effect on crop, application before weed generation in submerged conditions (symbol a); conditions: application herbicide amount 320 g/ha
How it was run: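 Alluvial soil pots flooded to 4 cm water, sown with Echinochloa oryzacola, Scirpus juncoides and Monochoria vaginalis, then transplanted with 2.5 leaf stage rice seedlings; pre-emergence application. Greenhouse 25° C. to 30° C.; scored 0–5 by herbicidal ratio 3 weeks after application.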

[5] = tested on: Scirpus juncoides; assay: Test Example 2: herbicidal activity, application during weed generation in submerged conditions (symbol B); conditions: Table 23; application herbicide amount 320 g/ha; grade 0-5 by criteria of Test Example 1
How it was run: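 Visual herbicidal ratings, taken three weeks after dosing, reflect post-emergence water-surface application to seedlings at one to two leaves. Conditions: co-sown weeds in alluvial soil flooded to 4 cm, greenhouse held at 25° C. to 30° C.; compound given as water-diluted emulsion at a fixed herbicide amount.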

[6] = tested on: Setaria viridis; assay: Test Example 4: herbicidal effect by soil treatment (symbol G); conditions: application herbicide amount 320 g/ha
How it was run: (§2)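 Seeds were sown in sterilized diluvial soil, covered with about 1.5 cm of soil, and the soil surface was sprayed with a water-diluted emulsion of the compound at a predetermined rate. Plants grew in a greenhouse at 25° C. to 30° C.; effects were scored visually 3 weeks after application.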

[7] = tested on: Alopecurus myosuroides; assay: Test Example 4: herbicidal effect by soil treatment (symbol J); conditions: application herbicide amount 320 g/ha
How it was run: as §2

[8] = tested on: Chenopodium album; assay: Test Example 4: herbicidal effect by soil treatment (symbol O); conditions: application herbicide amount 320 g/ha
How it was run: as §2

[9] = tested on: beet; assay: Test Example 4: effect on crop by soil treatment (symbol f); conditions: application herbicide amount 320 g/ha
How it was run: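 Crop seeds, among them rice, wheat, beet and rapeseed, were sown in sterilized diluvial soil and covered with about 1.5 cm of soil. Boxes were kept in a greenhouse at 25° C. to 30° C. for plant growth.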

[10] = tested on: Echinochloa crus-galli var. crus-galli; assay: Test Example 5: herbicidal effect by foliage application, plastic box (symbol H); conditions: 320 g/ha, 3 weeks after application
How it was run: (§3)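 Visual herbicidal score, taken three weeks post-application, of seedlings sprayed on the foliage with water-diluted emulsion at a predetermined amount; plants were 14 days old, greenhouse-raised at 25° C. to 30° C.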

[11] = tested on: Alopecurus myosuroides; assay: Test Example 5: herbicidal effect by foliage application, plastic box (symbol J); conditions: 320 g/ha, 3 weeks after application
How it was run: as §3

[12] = tested on: soybean; assay: Test Example 5: effect on crop by foliage application, plastic box (symbol d); conditions: 320 g/ha, 3 weeks after application
How it was run: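 Soil: sterilized diluvial. Container: plastic box, 21 × 13 cm, 7 cm deep. Sowing: spot-like, ~1.5 cm cover. Growth: greenhouse, 25° C. to 30° C.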

SMILES | Herbicidal effect grade, A: Echinochloa oryzacola Vasing. [1] | Herbicidal effect grade, B: Scirpus juncoides [2] | Herbicidal effect grade, C: Monochoria vaginalis [3] | Effect grade on crop, a: transplanted rice plant [4] | Herbicidal effect grade, B: Scirpus juncoides [5] | G: Setaria viridis, herbicidal effect grade [6] | J: Alopecurus myosuroides, herbicidal effect grade [7] | O: Chenopodium album, herbicidal effect grade [8] | f: beet, effect on crop grade [9] | H: Echinochloa crus-galli var. crus-galli, herbicidal effect grade [10] | J: Alopecurus myosuroides, herbicidal effect grade [11] | d: soybean, effect on crop grade [12]
CCOC(=O)C(CC)(C(C)=O)C1CC(O)=C(c2c(C)cc(C)cc2C)C1=O (stereo not drawn) [2-012] | 0 (Herbicidal ratio of 5% or lower (almost no effect)) | 0 (Herbicidal ratio of 5% or lower (almost no effect)) | 0 (Herbicidal ratio of 5% or lower (almost no effect)) | 0 (Herbicidal ratio of 5% or lower (almost no effect)) | 0 (Herbicidal ratio of 5% or lower (almost no effect)) | 0 (Herbicidal ratio of 5% or lower (almost no effect)) | 0 (Herbicidal ratio of 5% or lower (almost no effect)) | 0 (Herbicidal ratio of 5% or lower (almost no effect)) | 0 (Herbicidal ratio of 5% or lower (almost no effect)) | 1 (Herbicidal ratio of 5% or higher and lower than 20%) | 1 (Herbicidal ratio of 5% or higher and lower than 20%) | 0 (Herbicidal ratio of 5% or lower (almost no effect))
CCOC(=O)C(C(=O)c1ccccn1)C1CC(O)=C(c2c(C)cc(C)cc2C)C1=O (stereo not drawn) [2-013] | 0 (Herbicidal ratio of 5% or lower (almost no effect)) | 0 (Herbicidal ratio of 5% or lower (almost no effect)) | 0 (Herbicidal ratio of 5% or lower (almost no effect)) | 0 (Herbicidal ratio of 5% or lower (almost no effect)) | 0 (Herbicidal ratio of 5% or lower (almost no effect)) | 1 (Herbicidal ratio of 5% or higher and lower than 20%) | 0 (Herbicidal ratio of 5% or lower (almost no effect)) | 0 (Herbicidal ratio of 5% or lower (almost no effect)) | 0 (Herbicidal ratio of 5% or lower (almost no effect)) | 5 (Herbicidal ratio of 90% or more (almost completely withered)) | 5 (Herbicidal ratio of 90% or more (almost completely withered)) | 0 (Herbicidal ratio of 5% or lower (almost no effect))
COC(=O)C(C(=O)C1CC1)C1CC(O)=C(c2c(C)cc(C)cc2C)C1=O (stereo not drawn) [2-014] | 4 (Herbicidal ratio of 70% or higher and lower than 90%) | 3 (Herbicidal ratio of 40% or higher and lower than 70%) | 1 (Herbicidal ratio of 5% or higher and lower than 20%) | 1 (Herbicidal ratio of 5% or higher and lower than 20%) | 3 (Herbicidal ratio of 40% or higher and lower than 70%) | 5 (Herbicidal ratio of 90% or more (almost completely withered)) | 2 (Herbicidal ratio of 20% or higher and lower than 40%) | 0 (Herbicidal ratio of 5% or lower (almost no effect)) | 0 (Herbicidal ratio of 5% or lower (almost no effect)) | 5 (Herbicidal ratio of 90% or more (almost completely withered)) | 5 (Herbicidal ratio of 90% or more (almost completely withered)) | 0 (Herbicidal ratio of 5% or lower (almost no effect))
Cc1cc(C)c(C2=C(O)CC(CC(=O)Cc3ccccc3)C2=O)c(C)c1 (stereo not drawn) [2-015] | 0 (Herbicidal ratio of 5% or lower (almost no effect)) | 4 (Herbicidal ratio of 70% or higher and lower than 90%) | 0 (Herbicidal ratio of 5% or lower (almost no effect)) | 0 (Herbicidal ratio of 5% or lower (almost no effect)) | 0 (Herbicidal ratio of 5% or lower (almost no effect)) | 3 (Herbicidal ratio of 40% or higher and lower than 70%) | 2 (Herbicidal ratio of 20% or higher and lower than 40%) | 0 (Herbicidal ratio of 5% or lower (almost no effect)) | 0 (Herbicidal ratio of 5% or lower (almost no effect)) | 5 (Herbicidal ratio of 90% or more (almost completely withered)) | 5 (Herbicidal ratio of 90% or more (almost completely withered)) | 1 (Herbicidal ratio of 5% or higher and lower than 20%)
Cc1cc(C)c(C2=C(O)CC(CC(=O)C3CC3)C2=O)c(C)c1 (stereo not drawn) [2-017] | 5 (Herbicidal ratio of 90% or more (almost completely withered)) | 5 (Herbicidal ratio of 90% or more (almost completely withered)) | 3 (Herbicidal ratio of 40% or higher and lower than 70%) | 5 (Herbicidal ratio of 90% or more (almost completely withered)) | 4 (Herbicidal ratio of 70% or higher and lower than 90%) | 5 (Herbicidal ratio of 90% or more (almost completely withered)) | 3 (Herbicidal ratio of 40% or higher and lower than 70%) | 0 (Herbicidal ratio of 5% or lower (almost no effect)) | 0 (Herbicidal ratio of 5% or lower (almost no effect)) | 5 (Herbicidal ratio of 90% or more (almost completely withered)) | 4 (Herbicidal ratio of 70% or higher and lower than 90%) | 0 (Herbicidal ratio of 5% or lower (almost no effect))
CC(=O)CC1CC(OC(=O)C(C)(C)C)=C(c2c(C)cc(C)cc2C)C1=O (stereo not drawn) [2-018] | 5 (Herbicidal ratio of 90% or more (almost completely withered)) | 2 (Herbicidal ratio of 20% or higher and lower than 40%) | 1 (Herbicidal ratio of 5% or higher and lower than 20%) | 4 (Herbicidal ratio of 70% or higher and lower than 90%) | 0 (Herbicidal ratio of 5% or lower (almost no effect)) | 5 (Herbicidal ratio of 90% or more (almost completely withered)) | 3 (Herbicidal ratio of 40% or higher and lower than 70%) | 0 (Herbicidal ratio of 5% or lower (almost no effect)) | 0 (Herbicidal ratio of 5% or lower (almost no effect)) | 1 (Herbicidal ratio of 5% or higher and lower than 20%) | 1 (Herbicidal ratio of 5% or higher and lower than 20%) | 0 (Herbicidal ratio of 5% or lower (almost no effect))
